Source: publication PMC10377574, “Preclinical Characterization of a Stabilized Gastrin-Releasing Peptide Receptor Antagonist for Targeted Cancer Theranostics” (Biomolecules, 2023)

How the values were obtained:
[1] = in vivo; conditions: Balb/c nu/nu, mouse, iv, 40 pmol, total radioactivity
Method: (§1) Biodistribution was conducted in Balb/c nu/nu mice (Scanbur A/S, Stockholm, Sweden), implanted subcutaneously in their flanks with PC-3 cells (6 × 10^6 cells/mouse) 3–4 weeks before the study. […] Biodistributions were conducted at 1 h pi for both control groups.

[2] = mouse, in vivo
Method: (§2) Pills were ground to a fine powder in a mortar, divided, and suspended in tab water to individual 12 mg/200 mL doses of pill per animal administered per os (Entresto® group) [35].
(§3) The in vivo stability was determined in healthy male Swiss albino mice (12 mice in total, body weights 30 ± 5 g). Briefly, each radiolabeled peptide was injected as a bolus (100 μL, 11–22 MBq, 3 nmol of total peptide in saline/EtOH 9/1 v/v) in the tail vein of mice either untreated (controls) or 20 min after having received per os a slurry of an Entresto® pill (individual 12 mg/200 mL doses of pill per animal; Entresto®-group; Novartis, Basel, Switzerland), as previously described [34, 35]. Blood was collected 5 min post-injection (pi) in a chilled syringe directly from the heart (0.5–1 mL) and samples were processed prior to being analyzed by HPLC for the detection of forming radiometabolites, as previously described [25, 35]. For analyses, an XBridge Shield RP18 (5 μm, 4.6 mm × 20 mm) column (Waters, Vienna, Austria) was eluted at a flow rate of 1 mL/min with 0.1% TFA in H2O (A) and MeCN (B) with the following linear gradient system: 100%A/0%B at 0 min, with B linearly increasing by 1%/min to 60%A/40%B (system 2).

[3] = system: PC-3 tumors (GRPR-positive); test: Biodistribution in mice bearing PC-3 tumors; conditions: 1 h pi, n = 4
Method: as §1

[4] = Biodistribution in mice bearing PC-3 tumors; conditions: Balb/c nu/nu, mouse, iv, total radioactivity, n = 4; for tissue uptake at 1 h: 1 h pi; for tissue uptake at 4 h: 4 h pi; for tissue uptake at 24 h: 24 h pi
Method: as §1

[5] = Biodistribution in negative control mice bearing DU-145 tumors; assay type: in vivo; conditions: Balb/c nu/nu, mouse, iv, 40 pmol, total radioactivity, 1 h pi, n = 4
Method: as §1

[6] = In vivo metabolic stability in peripheral mice blood, HPLC; conditions: 5 min pi
Method: as §2, §3

[7] = Radiometal complex stability (PBS, EDTA challenge, human serum), ITLC; conditions: 1 h at 37 °C, n = 3
Method: The radiochemical stability to transchelation was assessed by incubation of the radiolabeled peptide either with 1000× molar excess of EDTA or by incubation in human serum for 1 h at 37 °C. Incubation of radiolabeled peptide in PBS was used as control. The leakage of radiometal from the radiometal-chelate was determined with ITLC.

[8] = PC-3 tumor, 40 pmol, Tumor (PC-3) uptake
[9] = kidneys, 40 pmol, Kidneys uptake
[10] = pancreas, 40 pmol, Pancreas uptake
[11] = small intestine, 40 pmol, Small intestine uptake

CC(C)C[C@H](NC(=O)C[C@H](O)[C@H](CC(C)C)NC(=O)[C@H](Cc1c[nH]cn1)NC(=O)CNC(=O)[C@@H](NC(=O)[C@H](C)NC(=O)[C@H](Cc1c[nH]c2ccccc12)NC(=O)[C@H](CCC(N)=O)NC(=O)[C@@H](Cc1ccccc1)NC(=O)COCCOCCNC(=O)CCC(C(=O)O)N1CCN(CC(=O)O)CCN(CC(=O)O)CCN(CC(=O)O)CC1)C(C)C)C(N)=O (mixture of isomers) [[^111In]In-DOTAGA-PEG2-RM26, metal not drawn]
tissue uptake at 1 h ([1]; Blood uptake): 0.5 ± 0.3 %ID/g | tissue uptake at 4 h ([1]; Blood uptake): 0.07 ± 0.01 %ID/g | tissue uptake at 24 h ([1]; Blood uptake): 0.015 ± 0.003 %ID/g | tissue uptake at 1 h ([1]; Bone uptake): 0.13 ± 0.08 %ID/g | tissue uptake at 4 h ([1]; Bone uptake): 0.07 ± 0.04 %ID/g | tissue uptake at 24 h ([1]; Bone uptake): 0.04 ± 0.03 %ID/g | tissue uptake at 1 h ([1]; Kidneys uptake): 4.6 ± 0.9 %ID/g | tissue uptake at 4 h ([1]; Kidneys uptake): 3.5 ± 0.7 %ID/g | tissue uptake at 24 h ([1]; Kidneys uptake): 2 ± 0.5 %ID/g | tissue uptake at 1 h ([1]; Liver uptake): 0.5 ± 0.1 %ID/g | tissue uptake at 4 h ([1]; Liver uptake): 0.23 ± 0.05 %ID/g | tissue uptake at 24 h ([1]; Liver uptake): 0.16 ± 0.02 %ID/g | tissue uptake at 1 h ([1]; Lungs uptake): 0.5 ± 0.2 %ID/g | tissue uptake at 4 h ([1]; Lungs uptake): 0.11 ± 0.02 %ID/g | tissue uptake at 24 h ([1]; Lungs uptake): 0.04 ± 0.01 %ID/g | tissue uptake at 1 h ([1]; Muscle uptake): 0.11 ± 0.08 %ID/g | tissue uptake at 4 h ([1]; Muscle uptake): 0.04 ± 0.01 %ID/g | tissue uptake at 24 h ([1]; Muscle uptake): 0.01 ± 0.01 %ID/g | tissue uptake at 1 h ([1]; Pancreas uptake): 1.9 ± 1 %ID/g | tissue uptake at 4 h ([1]; Pancreas uptake): 0.18 ± 0.04 %ID/g | tissue uptake at 24 h ([1]; Pancreas uptake): 0.03 ± 0.01 %ID/g | tissue uptake at 1 h ([1]; Small intestine uptake): 0.8 ± 0.2 %ID/g | tissue uptake at 4 h ([1]; Small intestine uptake): 0.13 ± 0.04 %ID/g | tissue uptake at 24 h ([1]; Small intestine uptake): 0.05 ± 0.05 %ID/g | tissue uptake at 1 h ([1]; Spleen uptake): 0.21 ± 0.06 %ID/g | tissue uptake at 4 h ([1]; Spleen uptake): 0.1 ± 0.02 %ID/g | tissue uptake at 24 h ([1]; Spleen uptake): 0.1 ± 0.03 %ID/g | tissue uptake at 1 h ([1]; Tumor (PC-3) uptake): 6 ± 0.4 %ID/g | tissue uptake at 4 h ([1]; Tumor (PC-3) uptake): 3 ± 1 %ID/g | tissue uptake at 24 h ([1]; Tumor (PC-3) uptake): 1.2 ± 0.4 %ID/g | % degraded in peripheral mice blood [2]: about 30%

CC(C)C[C@H](NC(=O)C[C@H](O)[C@H](CC(C)C)NC(=O)[C@H](Cc1c[nH]cn1)NC(=O)CN(C)C(=O)[C@@H](NC(=O)[C@H](C)NC(=O)[C@H](Cc1c[nH]c2ccccc12)NC(=O)[C@H](CCC(N)=O)NC(=O)[C@@H](Cc1ccccc1)NC(=O)COCCOCCNC(=O)CCC(C(=O)O)N1CCN(CC(=O)O)CCN(CC(=O)O)CCN(CC(=O)O)CC1)C(C)C)C(N)=O (mixture of isomers) [[^111In]In-AU-RM26-M1, [^111In]In-DOTAGA-PEG2-(Sar^11)RM26, metal not drawn]
Pancreas uptake [3]: 2.23 ± 0.56 %IA/g | tissue uptake at 1 h [4, 8]: 7 ± 0.7 %ID/g | tissue uptake at 4 h [4, 8]: 5.7 ± 1.8 %ID/g | tissue uptake at 24 h [4, 8]: 1.8 ± 0.6 %ID/g | tissue uptake at 1 h ([4]; PC-3 tumor, with unlabeled NOTA-PEG2-RM26, 5 nmol (in vivo GRPR blocking), PC-3 tumor uptake, GRPR-blocking group, excess unlabeled NOTA-PEG2-RM26 (5 nmol)): 0.9 ± 0.6 %ID/g | tissue uptake at 1 h ([4]; blood, 40 pmol, Blood uptake): 0.6 ± 0.1 %ID/g | tissue uptake at 4 h ([4]; blood, 40 pmol, Blood uptake): 0.11 ± 0.07 %ID/g | tissue uptake at 24 h ([4]; blood, 40 pmol, Blood uptake): 0.02 ± 0.01 %ID/g | tissue uptake at 1 h ([4]; bone, 40 pmol, Bone uptake): 0.17 ± 0.09 %ID/g | tissue uptake at 4 h ([4]; bone, 40 pmol, Bone uptake): 0.09 ± 0.03 %ID/g | tissue uptake at 24 h ([4]; bone, 40 pmol, Bone uptake): 0.06 ± 0.03 %ID/g | tissue uptake at 1 h [4, 9]: 7.2 ± 0.9 %ID/g | tissue uptake at 4 h [4, 9]: 6 ± 1 %ID/g | tissue uptake at 24 h [4, 9]: 3 ± 0.9 %ID/g | tissue uptake at 1 h ([4]; liver, 40 pmol, Liver uptake): 0.55 ± 0.04 %ID/g | tissue uptake at 4 h ([4]; liver, 40 pmol, Liver uptake): 0.24 ± 0.02 %ID/g | tissue uptake at 24 h ([4]; liver, 40 pmol, Liver uptake): 0.1 ± 0.03 %ID/g | tissue uptake at 1 h ([4]; lungs, 40 pmol, Lungs uptake): 0.46 ± 0.09 %ID/g | tissue uptake at 4 h ([4]; lungs, 40 pmol, Lungs uptake): 0.17 ± 0.06 %ID/g | tissue uptake at 24 h ([4]; lungs, 40 pmol, Lungs uptake): 0.03 ± 0.03 %ID/g | tissue uptake at 1 h ([4]; muscle, 40 pmol, Muscle uptake): 0.15 ± 0.08 %ID/g | tissue uptake at 4 h ([4]; muscle, 40 pmol, Muscle uptake): 0.13 ± 0.05 %ID/g | tissue uptake at 24 h ([4]; muscle, 40 pmol, Muscle uptake): 0.01 ± 0.01 %ID/g | tissue uptake at 1 h [4, 10]: 2.2 ± 0.6 %ID/g | tissue uptake at 4 h [4, 10]: 0.29 ± 0.02 %ID/g | tissue uptake at 24 h [4, 10]: 0.03 ± 0.01 %ID/g | tissue uptake at 1 h ([4]; pancreas, with unlabeled NOTA-PEG2-RM26, 5 nmol (in vivo GRPR blocking), pancreas uptake, blocked group, excess unlabeled NOTA-PEG2-RM26 (5 nmol)): 0.3 ± 0.2 %ID/g | tissue uptake at 1 h [4, 11]: 1.1 ± 0.6 %ID/g | tissue uptake at 4 h [4, 11]: 0.3 ± 0.2 %ID/g | tissue uptake at 24 h [4, 11]: 0.03 ± 0.01 %ID/g | tissue uptake at 1 h ([4]; spleen, 40 pmol, Spleen uptake): 0.3 ± 0.2 %ID/g | tissue uptake at 4 h ([4]; spleen, 40 pmol, Spleen uptake): 0.22 ± 0.07 %ID/g | tissue uptake at 24 h ([4]; spleen, 40 pmol, Spleen uptake): 0.1 ± 0.03 %ID/g | tissue uptake at 1 h ([5]; DU-145 tumor, read-out: uptake in DU-145 tumors (GRPR-negative)): 0.9 ± 0.2 %ID/g | tissue uptake at 1 h ([5]; pancreas, DU-145 tumor-bearing mice, read-out: pancreas uptake, negative control group): 2.2 ± 0.7 %ID/g | % intact radioligand in peripheral mice blood ([6]; Entresto-treated group (NEP inhibition, per os)): 91 ± 2% | % intact radioligand in peripheral mice blood ([6]; control (untreated) mice): 88 ± 8% | Radiochemical stability, % protein-associated activity, EDTA ([7]; 1000× molar excess of EDTA): 98.7 ± 0.3% | Radiochemical stability, % protein-associated activity, PBS ([7]; PBS control): 100.0 ± 0.3% | Radiochemical stability, % protein-associated activity, Serum ([7]; human serum): 99.2 ± 0.3%
